According to patent US12262713B2, “Method of controlling weeds” (SUMITOMO CHEMICAL COMPANY, LIMITED, priority 2018, dated 2025):
Structures can show the parent of a compound that is named as a salt.

Assays:
Assay type in all cases: in vivo
[1] = test system: glyphosate-resistant weeds (Amaranthus palmeri, waterhemp, kochia, marestail, Guernsey fleabane, fleabane, goosegrass, darnel, volunteer glyphosate-tolerant …); assay: Soil treatment pot test on day of seeding (Example 1); conditions: soil treatment at 6.25, 12.5, 25, 50, 100 or 150 g/ha; 200 L/ha; twenty-eight days after the treatment
Protocol: (§1) In a plastic pot filled with soil are seeded glyphosate-resistant Amaranthus palmeri in which the number of copies of EPSPS gene has been increased, glyphosate-resistant waterhemp in which the number of copies of EPSPS gene has been increased, glyphosate-resistant kochia in which the number of copies of EPSPS gene has been increased, marestail which is resistant to glyphosate by involving an ABC transporter, Guernsey fleabane which is resistant to glyphosate by involving an ABC transporter, fleabane which is resistant to glyphosate by involving an ABC transporter, glyphosate-resistant goosegrass having Thr102Ile, glyphosate-resistant goosegrass having Pro106Ser, glyphosate-resistant goosegrass having Pro106Ala, glyphosate-resistant goosegrass having Pro106Leu, glyphosate-resistant goosegrass having Thr102Ile and Pro106Ser, glyphosate-resistant darnel having Thr102Ile, glyphosate-resistant darnel having Pro106Ser, glyphosate-resistant darnel having Pro106Ala, glyphosate-resistant darnel having Pro106Leu, volunteer glyphosate-tolerant soybean, and volunteer glyphosate-tolerant cotton. On the same day, the soil is treated with trifludimoxazin at the application rate of 6.25, 12.5, 25, 50, 100 or 150 g/ha. The amount of a liquid sprayed is 200 L/ha. Subsequently, the plants are cultivated in a greenhouse.

[2] = test system: glyphosate-sensitive Amaranthus palmeri; assay: Foliar spray pot test in greenhouse, herbicidal effect (Example 29); conditions: foliar spray 200 L/ha at 18 days, rated 14 days after treatment, rating 0 to 100
Protocol: (§2) In a plastic pot filled with soli were seeded glyphosate-resistant Amaranthus palmeri in which the number of copies of EPSPS gene had been increased (produced by Azlin Seed Service) and glyphosate-sensitive Amaranthus palmeri (produced by Azlin Seed Service). The weeds were cultivated in a greenhouse for 18 days, and then an aqueous spray liquid [i.e., a liquid prepared by diluting a predetermined amount of a trifludimoxazin formulation (i.e., an emulsifiable concentrate prepared by mixing 20 parts of trifludimoxazin with 80 parts of a liquid cocktail (i.e., a mixture of 5 parts of cyclohexanone and 1 part of SORPOL 2680X (manufactured by TOHO Chemical Industry Co., Ltd.))) with water containing a spreading agent] was sprayed uniformly from above the weeds at the amount of 200 L/ha using a sprayer. Subsequently, the weeds were allowed to grow in a greenhouse for 14 days, and then the herbicidal effect was examined. As a reference example, the same procedure was carried out, except that the trifludimoxazin formulation was replaced with a predetermined amount of a glyphosate formulation (i.e., a soluble liquid containing 660 g/L of glyphosate potassium salt: “ROUNDUP MAXLOAD” (manufactured by Nissan Chemical Corporation). The results are shown in the table 1.

[3] = test system: glyphosate-resistant Amaranthus palmeri in which the number of copies of EPSPS gene had been increased; assay: as above; conditions: foliar spray 200 L/ha at 18 days, rated 14 days after treatment, rating 0 to 100
Protocol: as §2

[4] = test system: glyphosate-resistant weeds (Amaranthus palmeri, waterhemp, kochia, marestail, Guernsey fleabane, fleabane, goosegrass, darnel, volunteer glyphosate-tolerant …); assay: Foliar treatment pot test 21 days after seeding (Example 2); conditions: foliage application at 6.25, 12.5, 25, 50, 100 or 150 g/ha; 200 L/ha; fourteen days after the treatment
Protocol: as §1, with “The plants are cultivated in a greenhouse for 21 days, and then trifludimoxazin is applied to foliage of” for “On”, “plants” for “same day, the soil is treated with trifludimoxazin”, “at” for “at the”

Row | Structure (SMILES) | effect against the weeds [1] | Effect on glyphosate-sensitive Amaranthus palmeri ([2]; application rate 6.25 g/ha) | Effect on glyphosate-sensitive Amaranthus palmeri ([2]; application rate 12.5 g/ha) | Effect on glyphosate-sensitive Amaranthus palmeri ([2]; application rate 25 g/ha) | Effect on glyphosate-resistant Amaranthus palmeri ([3]; application rate 6.25 g/ha) | Effect on glyphosate-resistant Amaranthus palmeri ([3]; application rate 12.5 g/ha) | Effect on glyphosate-resistant Amaranthus palmeri ([3]; application rate 25 g/ha) | effect against the weeds [4] | Effect on glyphosate-sensitive Amaranthus palmeri ([2]; application rate 385 g/ha) | Effect on glyphosate-sensitive Amaranthus palmeri ([2]; application rate 1540 g/ha) | Effect on glyphosate-resistant Amaranthus palmeri ([3]; application rate 1540 g/ha) | Effect on glyphosate-resistant Amaranthus palmeri ([3]; application rate 6160 g/ha)
1 | C#CCN1C(=O)C(F)(F)Oc2cc(F)c(-n3c(=O)n(C)c(=S)n(C)c3=O)cc21 [Trifludimoxazin, trifludimoxazin] | significant effect | 65 | 70 | 80 | 100 | 100 | 100 | significant effect | – | – | – | –
2 | O=C(O)CNCP(=O)(O)O [Glyphosate potassium salt, glyphosate potassium salt] | – | – | – | – | – | – | – | – | 100 | 100 | 20 | 70
